For test [1], the system named is murine neuroblastoma cell line N2a. The test is described as follows: Induction of axon growth in N2a cells. Conditions: 1 μM in the test batch, after 72 h, listed as 7-(3,4-dimethoxyphenyl)-4-ethoxy-9-methyl-2-piperazin-1-yl-pyrido[3′,2′:4,5]-thi. In kind it is cell-based. An excerpt: The inventors have tested some PDE4 inhibitors according to the invention for induction of axon growth with the murine neuroblastoma cell line N2a. It turned out that in particular the substances 4-ethoxy-9-ethyl-7-(3,4-methylenedioxyphenyl)-2-piperazin-1-yl-pyrido[3′,2′:4,5]thieno[3,2-d]-pyrimidine and 7-(3,4-dimethoxyphenyl)-4-ethoxy-9-methyl-2-piperazin-1-yl-pyrido[3′,2′:4,5]thieno[3,2-d]pyrimidine hydrochloride were able to induce the growth of long processes (“axons”) having a length of up to […] at concentrations of 1 μM in the test batch after 72 h (FIGS. 1a and 1b).

In test [2] the test system is TNFα release. The experiment in a line: LPS-induced TNFα release in diluted human blood (ELISA). As to conditions: LPS 1 μg/ml, human blood diluted 1:5, 24 h; read-out: IC50 value in the TNFα inhibitory assay. The format is cell-based. An excerpt: Isolated leukocytes can be stimulated for the release of cytokines in different ways. Lipopolysaccharides (LPS) are a stimulus for the investigation of the TNFα release. LPS is part of bacterial cell walls and is released when the bacteria are killed (by antibiotics or the natural immune system). LPS stimulates in particular the activity of phagocytizing leukocytes (tissue macrophages, granulocytes, monocytes) and causes the infiltration of leukocytes from the peripheral blood into the affected tissue. A cytokine of special significance for these mechanisms is TNFα which is secreted in large amounts by the affected cells. The main source are here monocytes and macrophages. TNFα initiates and prolongs the inflammatory process in cooperation with other mediators.
For the investigation of the effect on the LPS-induced TNFα release a method was used which was described by Marx, D., Tassabehji, M., Heer, S., Hüttenbrink, K.-B., and I. Szelenyi, Pulmonary Pharmacology & Therapeutics (2002) 15, 7-15. The method is briefly: Human blood was taken from various donors, rendered incoagulable by the addition of 10 mM Na citrate and diluted 1:5 with RPMI 1640 cell culture medium. The test substances were added to the blood samples at various concentrations. 15 min later, the leukocytes were stimulated by the addition of lipopolysaccharides (LPS) from Salmonella abortus equi at a final concentration of 1 μg/ml. After the incubation of the test batches at 37° C. and under 5% CO2 in a water-saturated air for 24 h, the blood was centrifuged and the TNFα concentration in the cell-free supernatant was accurately measured using a purchasable ELISA (BD Biosciences) according to the manufacturer's instructions.
On the technique in general: ELISA stands for enzyme-linked immunosorbent assay.

Structures are written as SMILES.

The IC50 is the midpoint of a concentration-inhibition curve.

`CCOc1nc(N2CCNCC2)nc2c1sc1nc(-c3ccc(OC)c(OC)c3)cc(C)c12.Cl` [4-Ethoxy-7-(3,4-dimethoxy-phenyl)-9-methyl-2-(piperazin-1-yl)-pyrido[3′,2′:4,5]thieno[3,2-d]pyrimidine-hydrochloride] had a length of induced long processes (axons) in test [1] not above 300 µm. The IC50 in test [2] was less than 2000 nM.

For the origin of these results see patent US8058285B2, “Substituted pyrido [3′, 2′: 4, 5] thieno [3, 2-D] pyrimidines and pyrido [3′, 2′: 4, 5] furo [3, 2-D] pyrimidines used as inhibitors of the PDE-4 and/or the release of TNF-ALPHA” (The Medicines Company (Leipzig) GmbH, priority 2004, dated 2011).
